Laboratory results: ChEMBL document CHEMBL1139278 (2009)
≈ marks a conversion by molar mass, not a printed value.

How the values were obtained:
Format in all cases: functional
[1] = test system: Enterococcus faecium; test: Antimicrobial activity against vancomycin-resistant Enterococcus faecium KU1778 by NCCLS method
[2] = test system: Streptococcus pyogenes; test: Antimicrobial activity against Streptococcus pyogenes ATCC 112344 by NCCLS method
[3] = test system: Staphylococcus aureus; test: Antimicrobial activity against methicillin-susceptible Staphylococcus aureus Smith by NCCLS method
[4] = test system: Moraxella catarrhalis; test: Antimicrobial activity against Moraxella catarrhalis K1209 by NCCLS method
[5] = test system: Staphylococcus aureus; test: Antimicrobial activity against methicillin-resistant Staphylococcus aureus KMP9
[6] = test system: Haemophilus influenzae; test: Antimicrobial activity against Haemophilus influenzae TH13 by NCCLS method
[7] = test system: Streptococcus pneumoniae; test: Antimicrobial activity against penicillin-susceptible Streptococcus pneumoniae ATCC 49619 by NCCLS method
[8] = test system: Streptococcus pneumoniae; test: Antimicrobial activity against penicillin-resistant Streptococcus pneumoniae KT2524 by NCCLS method
[9] = test system: Staphylococcus aureus; test: Antimicrobial activity against methicillin-susceptible Staphylococcus aureus infected iv dosed mouse assessed as survival rate after 1 hr of infection

In the case of C=C[C@]1(C)C[C@@H](OC(=O)CN2CCN(C(=O)CCn3cnc4c(N5CC[C@H](N)C5)ncnc43)[C@@H](C)C2)[C@]2(C)[C@H](C)CC[C@]3(CCC(=O)[C@@H]32)[C@@H](C)[C@@H]1O.Cl.Cl, the MIC [1] is reported as 0.125 µg/mL, the MIC [2] is reported as 0.016 µg/mL and the MIC [3] is reported as 0.25 µg/mL. The MIC [4] was 0.125 µg/mL, the MIC [5] was 0.5 µg/mL and the MIC [6] was 4 µg/mL. The MIC [7] was 0.032 µg/mL, the MIC [8] was 0.032 µg/mL and the ED50 [9] was 1.1 mg/kg.
For C=C[C@]1(C)C[C@@H](OC(=O)CN2CCN(C(=O)CCn3cnc4c(N5CCC(CNC)C5)ncnc43)[C@@H](C)C2)[C@]2(C)[C@H](C)CC[C@]3(CCC(=O)[C@@H]32)[C@@H](C)[C@@H]1O.Cl.Cl (stereo partly specified), the MIC [1] was 0.25 µg/mL, the MIC [2] was 0.063 µg/mL and the MIC [3] was 0.125 µg/mL. It also gave an MIC [4] of 0.125 µg/mL, an MIC [5] of 1 µg/mL and an MIC [6] of 2 µg/mL. For the same molecule, the MIC [7] was 0.063 µg/mL, the MIC [8] was 0.032 µg/mL and the ED50 [9] was 1.2 mg/kg.
Work on C=C[C@]1(C)C[C@@H](OC(=O)CN2CCN(C(=O)CCn3cnc4c(N5CCC(CNC)C5)ncnc43)CC2)[C@]2(C)[C@H](C)CC[C@]3(CCC(=O)[C@@H]32)[C@@H](C)[C@@H]1O.Cl.Cl (stereo partly specified) yielded an MIC [1] of 1 µg/mL, an MIC [2] of 0.032 µg/mL and an MIC [3] of 0.25 µg/mL. The MIC [4] was 0.5 µg/mL, the MIC [5] was 2 µg/mL and the MIC [6] was 4 µg/mL. The MIC [7] was 0.125 µg/mL, the MIC [8] was 0.125 µg/mL and the ED50 [9] was 1.1 mg/kg.
Molecule CN[C@H](CC(C)C)C(=O)N[C@H]1C(=O)N[C@@H](CC(N)=O)C(=O)N[C@H]2C(=O)N[C@H]3C(=O)N[C@H](C(=O)N[C@H](C(=O)O)c4cc(O)cc(O)c4-c4cc3ccc4O)[C@H](O)c3ccc(c(Cl)c3)Oc3cc2cc(c3O[C@@H]2O[C@H](CO)[C@@H](O)[C@H](O)[C@H]2O[C@H]2C[C@](C)(N)[C@H](O)[C@H](C)O2)Oc2ccc(cc2Cl)[C@H]1O [VANCOMYCIN] has an MIC [1] of over 128 µg/mL, an MIC [4] of 64 µg/mL (≈ 44.2 µM) and an MIC [6] of over 128 µg/mL. It also gave an MIC [7] of 0.25 µg/mL (≈ 0.173 µM), an MIC [8] of 0.5 µg/mL (≈ 0.345 µM) and an ED50 [9] of 0.88 mg/kg.
For C=C[C@]1(C)C[C@@H](OC(=O)CN2CCN(C(=O)CCn3cnc4c(N5CCC(N)C5)ncnc43)C[C@H]2C)[C@]2(C)[C@H](C)CC[C@]3(CCC(=O)[C@@H]32)[C@@H](C)[C@@H]1O.Cl.Cl (stereo partly specified), the MIC [1] was 0.063 µg/mL, the MIC [2] was 0.016 µg/mL and the MIC [3] was 0.25 µg/mL. The MIC [4] was 0.063 µg/mL, the MIC [5] was 0.5 µg/mL and the MIC [6] was 2 µg/mL. It also gave an MIC [7] of 0.032 µg/mL, an MIC [8] of 0.063 µg/mL and an ED50 [9] of 1.42 mg/kg.
Work on C=C[C@]1(C)C[C@@H](OC(=O)CN2CCN(C(=O)CCn3cnc4c(N5CCC(N)C5)ncnc43)C(C)(C)C2)[C@]2(C)[C@H](C)CC[C@]3(CCC(=O)[C@@H]32)[C@@H](C)[C@@H]1O.Cl.Cl (stereo partly specified) yielded an MIC [1] of 0.063 µg/mL, an MIC [2] of 0.016 µg/mL and an MIC [3] of 0.125 µg/mL. The MIC [4] was 0.032 µg/mL, the MIC [5] was 0.125 µg/mL and the MIC [6] was 4 µg/mL. It also gave an MIC [7] of 0.032 µg/mL, an MIC [8] of 0.032 µg/mL and an ED50 [9] of 2.32 mg/kg.
Work on C=C[C@]1(C)C[C@@H](OC(=O)CN2CCN(C(=O)CCn3cnc4c(N5CCC(N)C5)ncnc43)[C@@H](C)C2)[C@]2(C)[C@H](C)CC[C@]3(CCC(=O)[C@@H]32)[C@@H](C)[C@@H]1O.Cl.Cl (stereo partly specified) yielded an MIC [1] of 0.125 µg/mL, an MIC [2] of 0.032 µg/mL and an MIC [3] of 0.125 µg/mL. The MIC [4] was 0.125 µg/mL, the MIC [5] was 0.25 µg/mL and the MIC [6] was 2 µg/mL. It also gave an MIC [7] of 0.032 µg/mL, an MIC [8] of 0.063 µg/mL and an ED50 [9] of 1.47 mg/kg.
C=C[C@]1(C)C[C@@H](OC(=O)CN2CCN(C(=O)CCn3cnc4c(N5CCC(N)C5)ncnc43)C(CC)C2)[C@]2(C)[C@H](C)CC[C@]3(CCC(=O)[C@@H]32)[C@@H](C)[C@@H]1O.Cl.Cl (stereo partly specified) was tested, and the MIC [1] was 0.125 µg/mL, the MIC [2] was 0.032 µg/mL and the MIC [3] was 0.25 µg/mL. The MIC [4] was 0.125 µg/mL, the MIC [5] was 0.25 µg/mL and the MIC [6] was 4 µg/mL. It also gave an MIC [7] of 0.063 µg/mL, an MIC [8] of 0.063 µg/mL and an ED50 [9] of 2.95 mg/kg.
C=C[C@]1(C)C[C@@H](OC(=O)CN2CC(C)N(C(=O)CCn3cnc4c(N5CCC(N)C5)ncnc43)C(C)C2)[C@]2(C)[C@H](C)CC[C@]3(CCC(=O)[C@@H]32)[C@@H](C)[C@@H]1O.Cl.Cl (stereo partly specified) showed an MIC [1] of 0.063 µg/mL, an MIC [2] of 0.016 µg/mL and an MIC [3] of 0.125 µg/mL. The MIC [4] was 0.063 µg/mL, the MIC [5] was 0.125 µg/mL and the MIC [6] was 4 µg/mL. The MIC [7] was 0.016 µg/mL, the MIC [8] was 0.016 µg/mL and the ED50 [9] was over 3.13 mg/kg.
C=C[C@]1(C)C[C@@H](OC(=O)CN2CCN(C(=O)CCn3cnc4c(N5CC[C@H](CNC)C5)ncnc43)CC2)[C@]2(C)[C@H](C)CC[C@]3(CCC(=O)[C@@H]32)[C@@H](C)[C@@H]1O.Cl.Cl gave an MIC [1] of 0.5 µg/mL, an MIC [2] of 0.032 µg/mL and an MIC [3] of 0.25 µg/mL. For the same molecule, the MIC [4] was 0.125 µg/mL, the MIC [5] was 2 µg/mL and the MIC [6] was 0.5 µg/mL. The MIC [7] was 0.125 µg/mL, the MIC [8] was 0.063 µg/mL and the ED50 [9] was 0.83 mg/kg.
Work on C=C[C@]1(C)C[C@@H](OC(=O)CN2CCN(C(=O)CCn3cnc4c(N5CCC(N)C5)ncnc43)C(C)C2)[C@]2(C)[C@H](C)CC[C@]3(CCC(=O)[C@@H]32)[C@@H](C)[C@@H]1O.Cl.Cl (stereo partly specified) yielded an MIC [1] of 0.125 µg/mL, an MIC [2] of 0.032 µg/mL and an MIC [3] of 0.25 µg/mL. For the same molecule, the MIC [4] was 0.125 µg/mL, the MIC [5] was 0.25 µg/mL and the MIC [6] was 2 µg/mL. For the same molecule, the MIC [7] was 0.032 µg/mL, the MIC [8] was 0.032 µg/mL and the ED50 [9] was 1.39 mg/kg.
For C=C[C@]1(C)C[C@@H](OC(=O)CN2CCN(C(=O)CCn3cnc4c(N5CCC(N)CC5)ncnc43)[C@@H](C)C2)[C@]2(C)[C@H](C)CC[C@]3(CCC(=O)[C@@H]32)[C@@H](C)[C@@H]1O.Cl.Cl, the MIC [1] was 0.125 µg/mL, the MIC [2] was 0.032 µg/mL and the MIC [3] was 0.25 µg/mL. It also gave an MIC [4] of 0.125 µg/mL, an MIC [5] of 0.5 µg/mL and an MIC [6] of 4 µg/mL. For the same molecule, the MIC [7] was 0.063 µg/mL, the MIC [8] was 0.063 µg/mL and the ED50 [9] was 1.66 mg/kg.
C=C[C@]1(C)C[C@@H](OC(=O)CN2CCN(C(=O)CCn3cnc4c(N5CCC(CN)CC5)ncnc43)CC2)[C@]2(C)[C@H](C)CC[C@]3(CCC(=O)[C@@H]32)[C@@H](C)[C@@H]1O.Cl.Cl gave an MIC [1] of 0.25 µg/mL, an MIC [2] of 0.032 µg/mL and an MIC [3] of 0.25 µg/mL. For the same molecule, the MIC [4] was 0.125 µg/mL, the MIC [5] was 1 µg/mL and the MIC [6] was 2 µg/mL. The MIC [7] was 0.125 µg/mL, the MIC [8] was 0.125 µg/mL and the ED50 [9] was 1.51 mg/kg.
C=C[C@]1(C)C[C@@H](OC(=O)CN2CCN(C(=O)CCn3cnc4c(N5CCC(CN)C5)ncnc43)CC2)[C@]2(C)[C@H](C)CC[C@]3(CCC(=O)[C@@H]32)[C@@H](C)[C@@H]1O.Cl.Cl (stereo partly specified) showed an MIC [1] of 1 µg/mL, an MIC [2] of 0.032 µg/mL and an MIC [3] of 0.25 µg/mL. It also gave an MIC [4] of 0.5 µg/mL, an MIC [5] of 2 µg/mL and an MIC [6] of 4 µg/mL. It also gave an MIC [7] of 0.063 µg/mL, an MIC [8] of 0.125 µg/mL and an ED50 [9] of 1.21 mg/kg.
C=C[C@]1(C)C[C@@H](OC(=O)CN2CCN(C(=O)CCn3cnc4c(N5CCC(NCC)C5)ncnc43)CC2)[C@]2(C)[C@H](C)CC[C@]3(CCC(=O)[C@@H]32)[C@@H](C)[C@@H]1O.Cl.Cl (stereo partly specified) showed an MIC [1] of 0.25 µg/mL, an MIC [2] of 0.063 µg/mL and an MIC [3] of 0.25 µg/mL. The MIC [4] was 0.125 µg/mL, the MIC [5] was 0.5 µg/mL and the MIC [6] was 4 µg/mL. It also gave an MIC [7] of 0.125 µg/mL, an MIC [8] of 0.125 µg/mL and an ED50 [9] of 2.21 mg/kg.
With C=C[C@]1(C)C[C@@H](OC(=O)CN2CCN(C(=O)CCn3cnc4c(N5CCC(NC)C5)ncnc43)CC2)[C@]2(C)[C@H](C)CC[C@]3(CCC(=O)[C@@H]32)[C@@H](C)[C@@H]1O.Cl (stereo partly specified) the MIC [1] was 0.25 µg/mL, the MIC [2] was 0.032 µg/mL and the MIC [3] was 0.25 µg/mL. For the same molecule, the MIC [4] was 0.25 µg/mL, the MIC [5] was 1 µg/mL and the MIC [6] was 4 µg/mL. It also gave an MIC [7] of 0.063 µg/mL, an MIC [8] of 0.125 µg/mL and an ED50 [9] of 1.3 mg/kg.
